From patent publication US20110178104A1, “Anti-Heparin Compounds” (POLYMEDIX INC., priority 2010, published 2011)
Like-named read-outs stand apart in the source and are kept apart here. Starred links: 1 amine or outer side, 2 acyl side, 3 side chain; linkers in the order of their positions; H or OH if unused. Non-standard residues stand in square brackets, D forms with d. Residues, ends and D or L forms follow the SMILES beside them. *: point of attachment. NH(3-CONH2-4-OMe-phenyl) = COc1ccc(N*)cc1C(N)=O; 3Abz(6-OMe) = COc1ccc(N[*:1])cc1C(=O)[*:2]; dOrn = NCCC[C@@H](N)C(=O)O

Experiments:
enoxaparin (ENOX) = test: FXa chromogenic assay (absence of plasma), enoxaparin
fondaparinux (FONDAPX) = test: FXa chromogenic assay (absence of plasma), fondaparinux
Experimental: Human antithrombin was mixed with an anticoagulant agent (a LMWH or fondaparinux); final concentrations were 0.22 μg/mL for the LMWHs and 0.07 μg/mL for fondaparinux. […] Absorbance was read every 30 seconds over a 4 minute period in a SpectraMax 250 instrument (Molecular Devices, Inc.). EC50 values are determined by a curve-fit program (SoftMax Pro) using the following formula:
FXa Chromogenic Assay (absence of plasma). Human antithrombin was mixed with an anticoagulant (a LMWH or fondaparinux); final concentrations were 0.1 μg/mL for the LMWHs and 0.02 μg/mL for fondaparinux. […] Absorbance was read every 30 seconds over a 4 minute period in a SpectraMax 250 instrument (Molecular Devices Inc.™) The slope of absorbance vs time was calculated for each compound concentration. EC50 values were determined using a curve fit program (GraphPad Prism 5).

[1] = test system: unfractionated heparin (UFH); test: aPTT clotting assay, UFH 0.2 U/mL in plasma (Example 7); assay type: biochemical
Experimental: aPTT clotting Assay. Unfractionated heparin was mixed with plasma at a final concentration of 0.2 U/mL. […] The ACL Elite Hemostasis analyzer (Beckman Coulter™) was used to add aPTT reagent (HemosIL SynthASil) to supplemented plasma. Clotting was initiated by addition of CaCl2 and time to clot was recorded.

[2] = enoxaparin 0.1 μg/mL, absence of plasma
[3] = fondaparinux 0.02 μg/mL, absence of plasma

COc1ccc(NC(=O)[C@@H](CCCCN)NC(=O)c2cc(NC(=O)[C@@H](CCCCN)NC(=O)c3cc(NC(=O)[C@@H](CCCCN)NC(=O)c4cc(NC(=O)[C@H](N)CCCCN)ccc4OC)ccc3OC)ccc2OC)cc1C(N)=O [Compound 17]
ENOX (FXa) EC50 (enoxaparin (ENOX); [2]): 0.50 µg/mL | FONDAPX (FXa) EC50 (fondaparinux (FONDAPX); [3]): 11.15 µg/mL | UFH (aPTT) EC50 ([1]; UFH 0.2 U/mL in plasma): 2.33 µg/mL

COc1ccc(NC(=O)[C@@H](CCCNC(=N)N)NC(=O)c2cc(NC(=O)[C@@H](CCCNC(=N)N)NC(=O)c3cc(NC(=O)[C@@H](CCCNC(=N)N)NC(=O)c4cc(NC(=O)[C@H](N)CCCNC(=N)N)ccc4OCCNC(=N)N)ccc3OC)ccc2OC)cc1C(N)=O [Compound 19]
ENOX (FXa) EC50 (enoxaparin (ENOX); [2]): 0.27 µg/mL | FONDAPX (FXa) EC50 (fondaparinux (FONDAPX); [3]): 3.35 µg/mL | UFH (aPTT) EC50 ([1]; UFH 0.2 U/mL in plasma): 2.11 µg/mL

N=C(N)NCCC[C@@H](N)C(=O)Nc1ccc(Cl)c(C(=O)N[C@H](CCCNC(=N)N)C(=O)Nc2ccc(Cl)c(C(=O)N[C@H](CCCNC(=N)N)C(=O)Nc3ccc(Cl)c(C(=O)N[C@H](CCCNC(=N)N)C(=O)Nc4ccc(Cl)c(C(N)=O)c4)c3)c2)c1 [Compound 26]
ENOX (FXa) EC50 (enoxaparin (ENOX); [2]): 3.93 µg/mL | FONDAPX (FXa) EC50 (fondaparinux (FONDAPX); [3]): 36.65 µg/mL | UFH (aPTT) EC50 ([1]; UFH 0.2 U/mL in plasma): 4.26 µg/mL

COc1ccc(NC(=O)[C@@H](CCCNC(=N)N)NC(=O)CCCCNC(=N)N)cc1C(=O)N[C@H](CCCNC(=N)N)C(=O)Nc1ccc(OC)c(C(=O)N[C@H](CCCNC(=N)N)C(=O)Nc2ccc(OC)c(C(=O)N[C@H](CCCNC(=N)N)C(=O)Nc3ccc(OCCNC(=N)N)c(C(N)=O)c3)c2)c1 [Compound 27]
ENOX (FXa) EC50 (enoxaparin (ENOX); [2]): 0.10 µg/mL | FONDAPX (FXa) EC50 (fondaparinux (FONDAPX); [3]): 2.51 µg/mL | UFH (aPTT) EC50 ([1]; UFH 0.2 U/mL in plasma): 2.19 µg/mL

COc1ccc(NC(=O)[C@H](CCCCN)NC(=O)c2cc(NC(=O)[C@H](CCCCN)NC(=O)c3cc(NC(=O)[C@H](CCCCN)NC(=O)c4cc(NC(=O)[C@H](CCCCN)NC(C)=O)ccc4OC)ccc3OC)ccc2OC)cc1C(N)=O [Compound 28]
ENOX (FXa) EC50 (enoxaparin (ENOX); [2]): 0.23 µg/mL | FONDAPX (FXa) EC50 (fondaparinux (FONDAPX); [3]): 3.21 µg/mL | UFH (aPTT) EC50 ([1]; UFH 0.2 U/mL in plasma): 2.28 µg/mL

COc1ccc(NC(=O)[C@@H](CCCN)NC(=O)c2cc(NC(=O)[C@@H](CCCNC(=N)N)NC(=O)c3cc(NC(=O)[C@@H](CCCNC(=N)N)NC(=O)c4cc(NC(=O)[C@H](N)CCCN)ccc4OC)ccc3OC)ccc2OC)cc1C(N)=O [Compound 30]
ENOX (FXa) EC50 (enoxaparin (ENOX)): 0.28 µg/mL | FONDAPX (FXa) EC50 (fondaparinux (FONDAPX)): 3.99 µg/mL | UFH (aPTT) EC50 [1]: 1.52 µg/mL

COc1c(NC(=O)[C@@H](CCCCN)NC(=O)c2cccc(NC(=O)[C@@H](CCCCN)NC(=O)c3cccc(NC(=O)[C@@H](CCCCN)NC(=O)c4cccc(NC(=O)[C@H](N)CCCCN)c4OC)c3OC)c2OC)cccc1C(N)=O [Compound 34]
ENOX (FXa) EC50 (enoxaparin (ENOX); [2]): 45.00 µg/mL | FONDAPX (FXa) EC50 (fondaparinux (FONDAPX); [3]): inactive | UFH (aPTT) EC50 ([1]; UFH 0.2 U/mL in plasma): inactive

COc1ccc(C(=O)N[C@H](CCCCN)C(=O)Nc2cc(C(=O)N[C@H](CCCCN)C(=O)Nc3cc(C(=O)N[C@H](CCCCN)C(=O)Nc4cc(C(N)=O)ccc4OC)ccc3OC)ccc2OC)cc1NC(=O)[C@H](N)CCCCN [Compound 35]
ENOX (FXa) EC50 (enoxaparin (ENOX); [2]): 45.00 µg/mL | FONDAPX (FXa) EC50 (fondaparinux (FONDAPX); [3]): inactive | UFH (aPTT) EC50 ([1]; UFH 0.2 U/mL in plasma): 30.65 µg/mL

COc1ccc(NC(=O)[C@@H](CCCNC(=N)N)NC(=O)c2cc(NC(=O)[C@@H](CCCNC(=N)N)NC(=O)c3cc(NC(=O)[C@@H](CCCNC(=N)N)NC(=O)c4cc(NC(=O)[C@@H](CCCNC(=N)N)NC(=O)CCCCNC(=N)N)ccc4OC)ccc3OC)ccc2OC)cc1C(N)=O [Compound 38]
ENOX (FXa) EC50 (enoxaparin (ENOX); [2]): 0.18 µg/mL | FONDAPX (FXa) EC50 (fondaparinux (FONDAPX); [3]): 1.94 µg/mL | UFH (aPTT) EC50 ([1]; UFH 0.2 U/mL in plasma): 2.37 µg/mL

COc1ccc(NC(=O)[C@@H](CCCN)NC(=O)c2cc(NC(=O)[C@@H](CCCNC(=N)N)NC(=O)c3cc(NC(=O)[C@@H](CCCN)NC(=O)c4cc(NC(=O)[C@H](N)CCCNC(=N)N)ccc4OC)ccc3OC)ccc2OC)cc1C(N)=O [Compound 39]
ENOX (FXa) EC50 (enoxaparin (ENOX)): 1.11 µg/mL | FONDAPX (FXa) EC50 (fondaparinux (FONDAPX)): 17.09 µg/mL | UFH (aPTT) EC50 [1]: 3.07 µg/mL

COc1ccc(NC(=O)[C@@H](CCCN)NC(=O)c2cc(NC(=O)[C@@H](CCCN)NC(=O)c3cc(NC(=O)[C@@H](CCCN)NC(=O)c4cc(NC(=O)[C@H](N)CCCN)ccc4OC)ccc3OC)ccc2OC)cc1C(N)=O [Compound 40]
ENOX (FXa) EC50 (enoxaparin (ENOX); [2]): 1.84 µg/mL | FONDAPX (FXa) EC50 (fondaparinux (FONDAPX); [3]): >90 µg/mL | UFH (aPTT) EC50 ([1]; UFH 0.2 U/mL in plasma): 2.88 µg/mL

COc1ccc(NC(=O)[C@@H](CCCNC(=N)N)NC(=O)c2cc(NC(=O)[C@@H](CCCNC(=N)N)NC(=O)c3cc(NC(=O)[C@@H](CCCNC(=N)N)NC(=O)c4cc(NC(=O)[C@H](N)CCCNC(=N)N)ccc4OC)ccc3OC)ccc2OC)cc1C(=O)NCCCCCN [Compound 41]
ENOX (FXa) EC50 (enoxaparin (ENOX); [2]): 0.16 µg/mL | FONDAPX (FXa) EC50 (fondaparinux (FONDAPX); [3]): 3.85 µg/mL | UFH (aPTT) EC50 ([1]; UFH 0.2 U/mL in plasma): 1.65 µg/mL

COc1ccc(NC(=O)[C@@H](CCCNC(=N)N)NC(=O)c2cc(NC(=O)[C@@H](CCCNC(=N)N)NC(=O)c3cc(NC(=O)[C@H](N)CCCNC(=N)N)ccc3OC)ccc2OC)cc1C(=O)N[C@H](CCCNC(=N)N)C(N)=O [Compound 42]
ENOX (FXa) EC50 (enoxaparin (ENOX); [2]): 4.07 µg/mL | FONDAPX (FXa) EC50 (fondaparinux (FONDAPX); [3]): 70.66 µg/mL | UFH (aPTT) EC50 ([1]; UFH 0.2 U/mL in plasma): 2.34 µg/mL

COc1ccc(NC(=O)[C@@H](CCCCN)NC(=O)c2cc(NC(=O)[C@@H](CCCNC(=N)N)NC(=O)c3cc(NC(=O)[C@@H](CCCCN)NC(=O)c4cc(NC(=O)[C@H](N)CCCNC(=N)N)ccc4OC)ccc3OC)ccc2OC)cc1C(N)=O [Compound 43]
ENOX (FXa) EC50 (enoxaparin (ENOX); [2]): 0.36 µg/mL | FONDAPX (FXa) EC50 (fondaparinux (FONDAPX); [3]): 4.44 µg/mL | UFH (aPTT) EC50 ([1]; UFH 0.2 U/mL in plasma): 2.33 µg/mL

COc1ccc(NC(=O)[C@@H](C)NC(=O)CCCCNC(=N)N)cc1C(=O)N[C@H](CCCNC(=N)N)C(=O)Nc1ccc(OC)c(C(=O)N[C@H](CCCNC(=N)N)C(=O)Nc2ccc(OC)c(C(=O)N[C@H](CCCNC(=N)N)C(=O)Nc3ccc(OCCNC(=N)N)c(C(N)=O)c3)c2)c1 [Compound 44]
ENOX (FXa) EC50 (enoxaparin (ENOX); [2]): 0.21 µg/mL | FONDAPX (FXa) EC50 (fondaparinux (FONDAPX); [3]): 2.91 µg/mL | UFH (aPTT) EC50 ([1]; UFH 0.2 U/mL in plasma): 2.38 µg/mL

COc1ccc(NC(=O)[C@H](CCCNC(=N)N)NC(=O)c2cc(NC(=O)[C@H](CCCNC(=N)N)NC(=O)c3cc(NC(=O)[C@H](CCCNC(=N)N)NC(=O)c4cc(NC(=O)[C@@H](N)CCCNC(=N)N)ccc4OC)ccc3OC)ccc2OC)cc1C(N)=O [Compound 45]
ENOX (FXa) EC50 (enoxaparin (ENOX); [2]): 0.23 µg/mL | FONDAPX (FXa) EC50 (fondaparinux (FONDAPX); [3]): 2.61 µg/mL | UFH (aPTT) EC50 ([1]; UFH 0.2 U/mL in plasma): 2.35 µg/mL

COc1ccc(NC(=O)[C@@H](CCCN)NC(=O)[C@@H](CCCN)NC(=O)c2cc(NC(=O)[C@@H](CCCN)NC(=O)c3cc(NC(=O)[C@@H](CCCNC(=N)N)NC(=O)c4cc(NC(=O)[C@H](N)CCCN)ccc4OC)ccc3OC)ccc2OC)cc1C(N)=O [Compound 46] (H-[dOrn][3Abz(6-OMe)][dR][3Abz(6-OMe)][dOrn][3Abz(6-OMe)][dOrn][dOrn]-{NH(3-CONH2-4-OMe-phenyl)})
ENOX (FXa) EC50 (enoxaparin (ENOX); [2]): 13.76 µg/mL | FONDAPX (FXa) EC50 (fondaparinux (FONDAPX); [3]): 76.88 µg/mL | UFH (aPTT) EC50 ([1]; UFH 0.2 U/mL in plasma): inactive

COc1ccc(NC(=O)[C@@H](CCCNC(N)=O)NC(=O)c2cc(NC(=O)[C@@H](CCCNC(=N)N)NC(=O)c3cc(NC(=O)[C@@H](CCCNC(N)=O)NC(=O)c4cc(NC(=O)[C@H](N)CCCNC(=N)N)ccc4OC)ccc3OC)ccc2OC)cc1C(N)=O [Compound 47]
ENOX (FXa) EC50 (enoxaparin (ENOX)): 0.36 µg/mL | FONDAPX (FXa) EC50 (fondaparinux (FONDAPX)): 6.52 µg/mL | UFH (aPTT) EC50 [1]: 3.23 µg/mL

COc1ccc(NC(=O)[C@@H](CCCN)NC(=O)c2cc(NC(=O)[C@@H](CCCNC(=N)N)NC(=O)c3cc(NC(=O)[C@@H](CCCNC(=N)N)NC(=O)c4cc(NC(=O)CCCCN)ccc4OC)ccc3OC)ccc2OC)cc1C(N)=O [Compound 48]
ENOX (FXa) EC50 (enoxaparin (ENOX); [2]): 0.30 µg/mL | FONDAPX (FXa) EC50 (fondaparinux (FONDAPX); [3]): 3.35 µg/mL | UFH (aPTT) EC50 ([1]; UFH 0.2 U/mL in plasma): 1.72 µg/mL
